Like-named read-outs stand apart in the source and are kept apart here.

In experiment [1] the target is T1, PARP in C41 cells (Homo sapiens (Human), UniProt P09874). Kind of experiment: cell-based.
Experiment [2] has as its target T1, PARP in C41 cells.
In experiment [3] the target is Recombinant Human Poly(ADP-Ribose) Polymerase (PARP), PARP-1 (Homo sapiens (Human), UniProt P09874). Conditions: read-out: PARP-1 (Ki); Table 3; H analogs versus para-F analogs.
Where [4] appears, read: Table 3, C41 cells, ratio to comparator EC50.

Chain of Recombinant Human Poly(ADP-Ribose) Polymerase (PARP), PARP-1 (P09874 whole entry): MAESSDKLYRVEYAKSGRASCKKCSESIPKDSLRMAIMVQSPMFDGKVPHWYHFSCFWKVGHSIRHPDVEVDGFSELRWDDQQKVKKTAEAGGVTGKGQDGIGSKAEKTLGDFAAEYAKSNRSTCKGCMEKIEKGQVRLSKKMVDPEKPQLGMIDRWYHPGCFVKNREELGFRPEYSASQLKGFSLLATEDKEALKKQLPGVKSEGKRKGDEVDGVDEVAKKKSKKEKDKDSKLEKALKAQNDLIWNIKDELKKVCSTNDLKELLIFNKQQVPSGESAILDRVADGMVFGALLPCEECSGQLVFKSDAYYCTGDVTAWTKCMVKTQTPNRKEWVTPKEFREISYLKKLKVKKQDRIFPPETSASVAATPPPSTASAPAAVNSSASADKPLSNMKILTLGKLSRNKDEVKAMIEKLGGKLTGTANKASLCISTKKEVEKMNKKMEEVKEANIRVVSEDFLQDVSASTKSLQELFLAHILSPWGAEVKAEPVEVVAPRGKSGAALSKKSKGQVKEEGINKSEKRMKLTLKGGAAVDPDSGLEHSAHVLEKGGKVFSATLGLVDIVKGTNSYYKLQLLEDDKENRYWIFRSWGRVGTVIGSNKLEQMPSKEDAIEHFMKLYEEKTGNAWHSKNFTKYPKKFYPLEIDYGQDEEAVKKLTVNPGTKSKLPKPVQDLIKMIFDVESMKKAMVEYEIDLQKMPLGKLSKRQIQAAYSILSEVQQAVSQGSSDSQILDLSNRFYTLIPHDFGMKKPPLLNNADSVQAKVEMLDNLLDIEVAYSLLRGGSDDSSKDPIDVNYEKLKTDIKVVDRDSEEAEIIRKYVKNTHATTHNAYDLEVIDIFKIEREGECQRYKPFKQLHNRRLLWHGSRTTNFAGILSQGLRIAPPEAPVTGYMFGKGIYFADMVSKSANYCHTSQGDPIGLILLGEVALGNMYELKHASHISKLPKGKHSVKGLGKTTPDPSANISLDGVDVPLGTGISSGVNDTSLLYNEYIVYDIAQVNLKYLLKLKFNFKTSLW
T1 sequence (P09874 whole entry): as above

What is called EC50 is the concentration at which the effect is half-maximal. High values mean a need for much substance, low ones an effect from little substance. For the compound `CCCN1CCC(c2nc3cccc(C(N)=O)c3[nH]2)CC1`, the concentration giving a half-maximal response (EC50) at PARP in C41 cells [1] (EC50 generally ranged, range over all assays) was 1 to 13 nM; on PARP in C41 cells [1] (mean EC50 for all assays carried out, n=270), 3.2 nM.
In general, Ki refers to a measure of affinity in units of concentration, obtained from inhibition or displacement. For the compound `O=C(c1cc(Cc2n[nH]c(=O)c3c2CCCC3)ccc1F)N1CCN(c2ccccc2Cl)CC1` [drawing 37], the “Cell EC50 ratio” value on PARP in C41 cells [2] (setting [4]) amounted to 6. In addition, the Ki in experiment [3] is 5 nM.
In the same order, the values of `O=C(c1cc(Cc2n[nH]c(=O)c3c2CCCC3)ccc1F)N1CCN(c2ccccc2F)CC1` [drawing 39] are 1.3 and 13 nM.
The matching figures for `O=C(c1cccc(Cc2n[nH]c(=O)c3c2CCCC3)c1)N1CCN(c2ccc(F)cc2)CC1` [drawing 40]: 2.2 and 6 nM.
Regarding `O=C(c1cc(Cc2n[nH]c(=O)c3c2CCCC3)ccc1F)N1CCN(c2ccc(F)cc2)CC1` [drawing 41], on PARP in C41 cells [2], the “Cell EC50 ratio” value was determined as 0.8. The Ki in experiment [3] is 4 nM.
On to `CN1CCCN(C(=O)c2cccc(Cc3n[nH]c(=O)c4c3CCCC4)c2)CC1` [drawing 42], for which, at PARP in C41 cells [2] (setting [4]), the “Cell EC50 ratio” value was determined as 3.8. The Ki in experiment [3] was 10 nM.
For the compound `CN1CCCN(C(=O)c2cc(Cc3n[nH]c(=O)c4c3CCCC4)ccc2F)CC1` [drawing 43], the “Cell EC50 ratio” value at PARP in C41 cells [2] is recorded as 0.6. Moreover, in experiment [3], the Ki amounted to 1.5 nM.
On to `NC(=O)C1CCCN(C(=O)c2cc(Cc3n[nH]c(=O)c4c3CCCC4)ccc2F)C1` (centres unmarked) [drawing 45], for which, at PARP in C41 cells [2] (setting [4]), the “Cell EC50 ratio” value is recorded as 28. Besides, the Ki in experiment [3] is 3 nM.
In the same order, the values of `O=C(c1cccc(Cc2n[nH]c(=O)c3c2CCCC3)c1)N1CCC(O)CC1` [drawing 46] are 13 and 5 nM.
The matching figures for `O=C(c1cc(Cc2n[nH]c(=O)c3c2CCCC3)ccc1F)N1CCC(O)CC1` [drawing 47]: 2 and 1.3 nM.
Consider `NC(=O)C1CCN(C(=O)c2cccc(Cc3n[nH]c(=O)c4c3CCCC4)c2)CC1` [drawing 48], for which the “Cell EC50 ratio” value on PARP in C41 cells [2] (setting [4]) was 215. For the same compound, the Ki in experiment [3] was 5 nM.
In the same order, the values of `NC(=O)C1CCN(C(=O)c2cc(Cc3n[nH]c(=O)c4c3CCCC4)ccc2F)CC1` [drawing 49] are 25 and 2.7 nM.
As to `CCN(CC)C(=O)C1CCCN(C(=O)c2cc(Cc3n[nH]c(=O)c4c3CCCC4)ccc2F)C1` (centres unmarked) [drawing 51], the “Cell EC50 ratio” value at PARP in C41 cells [2] (setting [4]) worked out at 17. In experiment [3], the Ki came out at 6 nM.
Turning to `CN(C)CCN(C)C(=O)c1cc(Cc2n[nH]c(=O)c3c2CCCC3)ccc1F` [drawing 53], at PARP in C41 cells [2] (setting [4]), the “Cell EC50 ratio” value was found to be 0.7. For the same compound, in experiment [3], the inhibition constant (Ki) was determined as 3.6 nM.
The matching figures for `CN1CCN(CCNC(=O)c2cccc(Cc3n[nH]c(=O)c4c3CCCC4)c2)CC1` [drawing 54]: 31 and 24 nM.
The matching figures for `CN1CCN(CCNC(=O)c2cc(Cc3n[nH]c(=O)c4c3CCCC4)ccc2F)CC1` [drawing 55]: 0.6 and 1.1 nM.
